Results taken from patent publication US20260306506A1, “PYRIDO[4,3-D]PYRIMIDINE COMPOUNDS” (Pfizer Inc., priority 2023, published 2026).
pIC50, pKd: −log10 of the molar value.

Tests used:
[1] = system: PANC08.13 (pancreatic cancer cell line); assay: KRAS Cell Titer Glo (CTG) viability assay, Panc08.13; format: cell-based; conditions: Panc08.13, 7-day, geometric mean when n>1
Text: (§1) The CellTiter-Glo® (CTG) Luminescent Cell Viability Assay is a homogeneous method of determining the number of viable cells in culture based on quantitation of the ATP present, an indicator of metabolically active cells. The CTG is designed for use with multi-well formats, making it ideal for automated high-throughput screening (HTS), cell proliferation and cytotoxicity assays. The homogeneous assay procedure involves adding the single reagent (CellTiter-Glo® Reagent) directly to cells cultured in serum-supplemented medium. Cell washing, removal of medium and multiple pipetting steps are not required. The system detects as few as 15 cells per well in a 384-well format in 10 minutes after adding reagent and mixing.
(§2) Cells are grown in humidified 5% CO2 incubator at 37° C. using the culture conditions outlined below. All cell culture media reagents were purchased from Gibco. Cell lines purchased from ATCC: H358 (non-small cell lung cancer cell line), SW620 (colorectal cancer cell line), PANC08.13 (RPM11640+10% FBS+10 units/ml Insulin, pancreatic cancer cell line). Test and control compounds are dispensed as nanoliter drops according to desired final concentrations in 0.1% DMSO using Echo Acoustic Dispenser onto 384 assay plates (Corning, Cat #3764) prior to cell seeding. Cells were seeded in 40 μL volume per well at the following cell densities (cells per well): H358 (300), SW620 (750), PANC 08.13 (600). Cells are incubated in the presence of compound for 7-days. Viability is determined on Day 7 using CellTiter-Glo® (CTG) Luminescent Cell Viability Assay (Promega). CTG is added to a final volume of 20 μl per well and incubated at room temperature for 15 minutes before luminescence is captured using an EnVision Reader with LUM384 US protocol. Data is analyzed using Activity Base to determine compound response and will be represented either as a percent effect (PCTEFF) or percent control (PCTOCTL) as described: Zero percent effect control (ZPE) (Negative control)—100% DMSO. Hundred percent effect (HPE) (Positive control)—1 μM Trametinib (GSK1120212, MEK inhibitor) (4 nl of 10 mM and 36 nl of DMSO per well). The following equations/nomenclature are used (% Effect; PCTEFF) and (% of Control; PCTOCTL): PCTEFF: 100*(Raw_Data_Value−HPE/ZPE−HPE), PCTOCTL: 100*Raw_Data_Value/User_Defined_Array), where the User_Defined_Array is either summarized HPE or ZPE.

[2] = system: H358 (non-small cell lung cancer cell line); assay: KRAS Cell Titer Glo (CTG) viability assay, H358; format: cell-based; conditions: H358, 7-day, geometric mean when n>1
Text: as §1, §2

[3] = system: SW620 (colorectal cancer cell line); assay: KRAS Cell Titer Glo (CTG) viability assay, SW620; format: cell-based; conditions: SW620, 7-day, geometric mean when n>1
Text: as §1, §2

[4] = molecular target: T1, WT GTPγS KRAS (aa1-185) (Homo sapiens, UniProt P01116); assay: SPR binding (Biacore), GTPγS-loaded WT KRAS; conditions: for pKd: 10° C., geometric mean when n>1, read-out: KRasGTPgS SPR KD; for KRasGTPgS SPR t1/2: dissociative half-life, t1/2=0.693/koff
T1 construct: wild-type (WT) KRASGDP (aa1-185); made in house
Text: (§3) No additional regeneration was used.
(§4) Compound dissociation was monitored for at least 3600 seconds. […] No additional regeneration was used.

[5] = molecular target: T2, G12V GTPγS KRAS (aa2-184) (Homo sapiens, UniProt P01116, G12V); assay: SPR binding (Biacore), GTPγS-loaded KRAS G12V; conditions: for pKd: 10° C., geometric mean when n>1, read-out: KRasGTPgS G12V SPR KD; for KRasGTPgS G12V SPR t1/2: dissociative half-life, t1/2=0.693/koff
T2 construct: G12VGDP KRAS (aa2-184); made in house
Text: as §3, §4

[6] = molecular target: T3, G12D GTPγS KRAS (aa1-185) (Homo sapiens, UniProt P01116, G12D); assay: SPR binding (Biacore), GTPγS-loaded KRAS G12D; conditions: for pKd: 10° C., geometric mean when n>1, read-out: KRasGTPgS G12D SPR KD; for KRasGTPgS G12D SPR t1/2: dissociative half-life, t1/2=0.693/koff
T3 construct: G12DGDP KRAS (aa1-185); made in house
Text: as §3, §4

[7] = molecular target: T4, G12C GTPγS KRAS (aa2-184) (Homo sapiens, UniProt P01116, G12C); assay: SPR binding (Biacore), GTPγS-loaded KRAS G12C; conditions: for pKd: 10° C., geometric mean when n>1, read-out: KRasGTPgS G12C SPR KD; for KRasGTPgS G12C SPR t1/2: dissociative half-life, t1/2=0.693/koff
T4 construct: G12CGDP KRAS (aa2-184); made in house
Text: as §3, §4

[8] = molecular target: G12C GDP KRAS (aa2-184) (Homo sapiens, UniProt P01116, G12C); assay: biochemical
Method: (§5) The binding affinity and kinetics were measured by Surface Plasmon Resonance (SPR) using Biacore 8K or 8K+ (Cytiva, Marlborough, MA) instruments. Recombinant, C-terminal site-specific biotinylated, wild-type (WT) KRASGDP (aa1-185), G12DGDP KRAS (aa1-185), G12CGDP KRAS (aa2-184), G12VGDP KRAS (aa2-184), WT HRASGDP (aa2-184) and WT NRASGDP (aa2-185) proteins were purified in presence of 1 μM GDP. The GDP-loaded KRAS proteins then went through nucleotide exchange with GTPγS (a non-hydrolysable analog of GTP) in the presence of alkaline phosphatase beads to obtain WTGTPγS KRAS (aa1-185), G12DGTPγS KRAS (aa1-185), G12CGTPγS KRAS (aa2-184), G12VGTPγS KRAS (aa2-184), WT HRASGTPγS (aa2-184) and WT NRASGTPγS (aa2-185). Binding measurements were performed parallelly in sets of either WT/G12D/G12C/G12V KRAS or WT K/H/N RAS proteins in GDP- and/or GTPγS-loaded forms, respectively.
(§6) Biacore instrument was desorbed and docked with a Series S Sensor Chip SA. […] Compound binding kinetics were measured in either multi-cycle or single-cycle kinetic format.
(§7) A 2-fold, 10-point serial dilution of test compounds was set-up in a 96-well microplate (Greiner; Cat #650101) with a top concentration of either 10 μM or 100 μM. Binding kinetics was measured at 10° C. by injecting serial dilution of compounds onto both reference and RAS immobilized channels at a flow rate of 100 μL/min and association time of 90 seconds. Compound dissociation was monitored for at least 400 seconds during each cycle. […]
(§8) A 3-fold, 6-point serial dilution of compounds was set-up in a deep 96-well microplate (Greiner Bio; Cat #780201) with the highest concentration of 1 μM (concentration range: 0.004-1 μM). Binding kinetics was measured at 10° C. by injecting serial dilutions of compounds in increasing order onto reference as well as RAS immobilized channels at a flow rate of 100 μL/min and association time of 120 seconds. Compound dissociation was monitored for at least 3600 seconds. […]
(§9) Both MCK and SCK data were processed and analyzed using Biacore Insight evaluation software (Cytiva, Marlborough, MA)). […]

[9] = molecular target: G12V GDP KRAS (aa2-184) (Homo sapiens, UniProt P01116, G12V); assay: biochemical
Method: as §5, §6, §7, §8, §9

[10] = molecular target: T5, wild-type (WT) KRAS GDP (aa1-185) (Homo sapiens, UniProt P01116); assay: SPR binding (Biacore), GDP-loaded WT KRAS; conditions: 10° C., geometric mean when n>1
T5 construct: wild-type (WT) KRASGDP (aa1-185); made in house
Text: as §3, §4

[11] = molecular target: G12D GDP KRAS (aa1-185) (Homo sapiens, UniProt P01116, G12D); assay: biochemical
Method: as §5, §6, §7, §8, §9

[12] = Homo sapiens, PANC-08-13, 168 h

pIC50 [1, 12] | pIC50 ([2]; Homo sapiens, NCI-H358, 168 h) | pIC50 ([3]; Homo sapiens, SW-620, 168 h) | Structure (SMILES) | further results
7.91 | 6.95 | 6.78 | C#Cc1cccc2cc(O)cc(-c3ncc4c(N5C[C@@H]6C[C@H](C5)[C@H](O)C6)nc(OC[C@@]56CCCN5C[C@H](F)C6)nc4c3F)c12 [Example 9, (1R,5R,6R)-3-[7-(8-ethynyl-3-hydroxynaphthalen-1-yl)-8-fluoro-2-{[(2R,7aS)-2-fluorotetrahydro-1H-pyrrolizin-7a(5H)-yl]methoxy}pyrido[4,3-d]pyrimidin-4-yl]-3-azabicyclo[3.2.1]octan-6-ol] | 
8.09 | 7.57 | 7.45 | C#Cc1c(F)ccc2cc(O)cc(-c3ncc4c(N5C[C@@H]6C[C@H](C5)[C@H](O)C6)nc(OC[C@@]56CCCN5C[C@H](F)C6)nc4c3F)c12 [Example 10, (1R,5R,6R)-3-[7-(8-ethynyl-7-fluoro-3-hydroxynaphthalen-1-yl)-8-fluoro-2-{[(2R,7aS)-2-fluorotetrahydro-1H-pyrrolizin-7a(5H)-yl]methoxy}pyrido[4,3-d]pyrimidin-4-yl]-3-azabicyclo[3.2.1]octan-6-ol] | 
7.70 | 6.94 | 6.87 | N#CC[C@@H]1CCCN(c2nc(OC[C@@]34CCCN3C[C@H](F)C4)nc3c(F)c(-c4cc(O)cc5ccc(F)c(F)c45)ncc23)C1 [Example 12, {(3S)-1-[7-(7,8-difluoro-3-hydroxynaphthalen-1-yl)-8-fluoro-2-{[(2R,7aS)-2-fluorotetrahydro-1H-pyrrolizin-7a(5H)-yl]methoxy}pyrido[4,3-d]pyrimidin-4-yl]piperidin-3-yl}acetonitrile] | 
7.97 | 7.38 | 7.45 | Oc1cc(-c2ncc3c(N4C[C@@H]5C[C@H](C4)[C@H](O)C5)nc(OC[C@@]45CCCN4C[C@H](F)C5)nc3c2F)c2c(F)c(F)ccc2c1 [Example 14, (1R,5R,6R)-3-[7-(7,8-difluoro-3-hydroxynaphthalen-1-yl)-8-fluoro-2-{[(2R,7aS)-2-fluorotetrahydro-1H-pyrrolizin-7a(5H)-yl]methoxy}pyrido[4,3-d]pyrimidin-4-yl]-3-azabicyclo[3.2.1]octan-6-ol] | 
6.92 | 6.31 | 6.06 | C#Cc1c(F)ccc2cc(O)cc(-c3ncc4c(N5CCC[C@@H](CC#N)C5)nc(OC[C@@]56CCCN5C[C@H](F)C6)nc4c3F)c12 [Example 15, {(3S)-1-[7-(8-ethynyl-7-fluoro-3-hydroxynaphthalen-1-yl)-8-fluoro-2-{[(2R,7aS)-2-fluorotetrahydro-1H-pyrrolizin-7a(5H)-yl]methoxy}pyrido[4,3-d]pyrimidin-4-yl]piperidin-3-yl}acetonitrile] | 
7.34 | 6.85 | 6.79 | Oc1cc(-c2ncc3c(N4C[C@@H]5C[C@H](C4)[C@H](O)C5)nc(OC[C@@]45CCCN4C[C@H](F)C5)nc3c2F)c2c(Cl)cccc2c1 [Example 20, (1R,5R,6R)-3-[7-(8-chloro-3-hydroxynaphthalen-1-yl)-8-fluoro-2-{[(2R,7aS)-2-fluorotetrahydro-1H-pyrrolizin-7a(5H)-yl]methoxy}pyrido[4,3-d]pyrimidin-4-yl]-3-azabicyclo[3.2.1]octan-6-ol] | 
8.92 | 7.13 | 7.34 | C#Cc1c(F)ccc2cc(O)cc(-c3nc4c5c(nc(OC[C@@]67CCCN6C[C@H](F)C7)nc5c3F)N3CCCC[C@H]3CO4)c12 [Example 23, 5-ethynyl-6-fluoro-4-[(8aS)-4-fluoro-2-{[(2R,7aS)-2-fluorotetrahydro-1H-pyrrolizin-7a(5H)-yl]methoxy}-8,8a,9,10,11,12-hexahydro-7-oxa-1,3,6,12a-tetraazabenzo[4,5]cyclohepta[1,2,3-de]naphthalen-5-yl]naphthalen-2-ol] | 
8.68 |  |  | C#Cc1c(F)c(F)cc2cc(O)cc(-c3nc4c5c(nc(OC[C@@]67CCCN6C[C@H](F)C7)nc5c3F)N3CCCC[C@H]3CO4)c12 [Example 32, 5-ethynyl-6,7-difluoro-4-[(8aS)-4-fluoro-2-{[(2R,7aS)-2-fluorotetrahydro-1H-pyrrolizin-7a(5H)-yl]methoxy}-8,8a,9,10,11,12-hexahydro-7-oxa-1,3,6,12a-tetraazabenzo[4,5]cyclohepta[1,2,3-de]naphthalen-5-yl]naphthalen-2-ol] | pIC50 [2]: 7.32; pIC50 [3]: 7.35
 |  |  | C#Cc1c(F)c(F)cc2cc(O)cc(-c3nc4c5c(nc(OC[C@@]67CCCN6C[C@H](F)C7)nc5c3F)N3CCCC[C@H]3CO4)c12 [Example 33, 5-ethynyl-6,7-difluoro-4-[(8aS)-4-fluoro-2-{[(2R,7aS)-2-fluorotetrahydro-1H-pyrrolizin-7a(5H)-yl]methoxy}-8,8a,9,10,11,12-hexahydro-7-oxa-1,3,6,12a-tetraazabenzo[4,5]cyclohepta[1,2,3-de]naphthalen-5-yl]naphthalen-2-ol] | pKd [4]: 9.77; KRasGTPgS SPR t1/2 [4]: 12.7 h; pKd [5]: 9.76; KRasGTPgS G12V SPR t1/2 [5]: 12.7 h; pKd [6]: 9.93; KRasGTPgS G12D SPR t1/2 [6]: 9.9 h; pKd [7]: 9.69; KRasGTPgS G12C SPR t1/2 [7]: 17.6 h; pIC50 [1]: 8.96; pIC50 [2]: 8.41; pIC50 [3]: 8.18
> 9.15 | 8.64 | 8.42 | C=C1CN2CCC[C@@]2(COc2nc3c4c(nc(-c5cc(O)cc6ccc(F)c(CC)c56)c(F)c4n2)OC[C@@H]2COCCCN32)C1 [Example 35, 5-ethyl-6-fluoro-4-[(8aS)-4-fluoro-2-{[(7aS)-2-methylidenetetrahydro-1H-pyrrolizin-7a(5H)-yl]methoxy}-8a, 9,12,13-tetrahydro-8H,11H-7,10-dioxa-1,3,6,13a-tetraazanaphtho[1,8-ab]heptalen-5-yl]naphthalen-2-ol] | pKd [4]: 9.74; KRasGTPgS SPR t1/2 [4]: 12.4 h; pKd [8]: 11.05; pKd [9]: 10.32; pKd [5]: 9.68; KRasGTPgS G12V SPR t1/2 [5]: 10.3 h; pKd [10]: 11.15; pKd [6]: 10.04; KRasGTPgS G12D SPR t1/2 [6]: 11.3 h; pKd [7]: 9.74; KRasGTPgS G12C SPR t1/2 [7]: 17.8 h; pKd [11]: 10.96
